Reference: ChEMBL document CHEMBL1201862, “PubChem BioAssay data set” (2004)
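These data come from cells grown in 96-well plates and exposed to compound for 48 hours at five concentrations. Abbreviation: GI50, concentration required for 50% inhibition of growth.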 The source made the active and inactive calls. Cut-off read from the data, not from the text of the source: active = GI50 up to about 1.1 µM and inactive = higher.

Experiments:
Experiment in all cases: DTP human tumour cell line panel, 48 h
786-0 = test system: 786-0
A549 = test system: A549
BT-549 = test system: BT-549
CCRF-CEM = test system: CCRF-CEM
COLO 205 = test system: COLO 205
DU-145 = test system: DU-145
EKVX = test system: EKVX
HCC 2998 = test system: HCC 2998
HCT-116 = test system: HCT-116
HCT-15 = test system: HCT-15
HL-60 = test system: HL-60
HOP-62 = test system: HOP-62
HOP-92 = test system: HOP-92
HT-29 = test system: HT-29
IGROV-1 = test system: IGROV-1
K562 = test system: K562
KM12 = test system: KM12
LOX IMVI = test system: LOX IMVI
M14 = test system: M14
MCF7 = test system: MCF7
MDA-MB-231 = test system: MDA-MB-231
MDA-MB-435 = test system: MDA-MB-435
MDA-N = test system: MDA-N
MOLT-4 = test system: MOLT-4
NCI-H23 = test system: NCI-H23
NCI-H460 = test system: NCI-H460
NCI-H522 = test system: NCI-H522
NCI/ADR-RES = test system: NCI/ADR-RES
OVCAR-3 = test system: OVCAR-3
OVCAR-4 = test system: OVCAR-4
OVCAR-5 = test system: OVCAR-5
OVCAR-8 = test system: OVCAR-8
PC-3 = test system: PC-3
SF-268 = test system: SF-268
SF-295 = test system: SF-295
SF-539 = test system: SF-539
SK-MEL-28 = test system: SK-MEL-28
SK-MEL-5 = test system: SK-MEL-5
SK-OV-3 = test system: SK-OV-3
SN12C = test system: SN12C
SNB-19 = test system: SNB-19
SNB-75 = test system: SNB-75
SR = test system: SR
SW-620 = test system: SW-620
T47D = test system: T47D
TK-10 = test system: TK-10
U-251 = test system: U-251
UACC-257 = test system: UACC-257
UACC-62 = test system: UACC-62
UO-31 = test system: UO-31
ACHN = test system: ACHN
Hs-578T = test system: Hs-578T
NCI-H226 = test system: NCI-H226
RXF 393 = test system: RXF 393
SK-MEL-2 = test system: SK-MEL-2
A498 = test system: A498
CAKI-1 = test system: CAKI-1
RPMI-8226 = test system: RPMI-8226

For `COc1cccc(-c2nc(-c3cnccn3)n(C3OC(CO)C(O)C3O)n2)c1` (centres undefined), the GI50 (786-0) was > 100 µM (inactive), the GI50 (A549) was > 100 µM (inactive) and the GI50 (BT-549) was > 100 µM (inactive). The GI50 (CCRF-CEM) was > 100 µM (inactive), the GI50 (COLO 205) was > 100 µM (inactive) and the GI50 (DU-145) was > 100 µM (inactive). The GI50 (EKVX) was > 100 µM (inactive), the GI50 (HCC 2998) was > 100 µM (inactive) and the GI50 (HCT-116) was > 100 µM (inactive). For the same molecule, the GI50 (HCT-15) was greater than 100 µM, the GI50 (HL-60) was > 100 µM (inactive) and the GI50 (HOP-62) was > 100 µM (inactive). The GI50 (HOP-92) was > 100 µM (inactive), the GI50 (HT-29) was > 100 µM (inactive) and the GI50 (IGROV-1) was > 100 µM (inactive). The GI50 (K562) was > 100 µM (inactive), the GI50 (KM12) was > 100 µM (inactive) and the GI50 (LOX IMVI) was > 100 µM (inactive). The GI50 (M14) was > 100 µM (inactive), the GI50 (MCF7) was > 100 µM (inactive) and the GI50 (MDA-MB-231) was > 100 µM (inactive). The GI50 (MDA-MB-435) was > 100 µM (inactive), the GI50 (MDA-N) was > 100 µM (inactive) and the GI50 (MOLT-4) was > 100 µM (inactive). For the same molecule, the GI50 (NCI-H23) was > 100 µM (inactive), the GI50 (NCI-H460) was > 100 µM (inactive) and the GI50 (NCI-H522) was > 100 µM (inactive). The GI50 (NCI/ADR-RES) was > 100 µM (inactive), the GI50 (OVCAR-3) was > 100 µM (inactive) and the GI50 (OVCAR-4) was > 100 µM (inactive). For the same molecule, the GI50 (OVCAR-5) was > 100 µM (inactive), the GI50 (OVCAR-8) was > 100 µM (inactive) and the GI50 (PC-3) was > 100 µM (inactive). The GI50 (SF-268) was > 100 µM (inactive), the GI50 (SF-295) was > 100 µM (inactive) and the GI50 (SF-539) was > 100 µM (inactive). For the same molecule, the GI50 (SK-MEL-28) was > 100 µM (inactive), the GI50 (SK-MEL-5) was > 100 µM (inactive) and the GI50 (SK-OV-3) was > 100 µM (inactive). The GI50 (SN12C) was > 100 µM (inactive), the GI50 (SNB-19) was > 100 µM (inactive) and the GI50 (SNB-75) was > 100 µM (inactive). For the same molecule, the GI50 (SR) was > 100 µM (inactive), the GI50 (SW-620) was > 100 µM (inactive) and the GI50 (T47D) was > 100 µM (inactive). For the same molecule, the GI50 (TK-10) was > 100 µM (inactive), the GI50 (U-251) was > 100 µM (inactive) and the GI50 (UACC-257) was > 100 µM (inactive). The GI50 (UACC-62) was > 100 µM (inactive) and the GI50 (UO-31) was > 100 µM (inactive).
In the case of `Cc1cc2c([nH]c3ccccc32)c(O)c1-c1c(C)cc2c([nH]c3ccccc32)c1O`, the GI50 (786-0) is reported as 13.7 µM (inactive), the GI50 (A549) is reported as 12.1 µM (inactive) and the GI50 (ACHN) is reported as 14.3 µM (inactive). The GI50 (BT-549) was 18.8 µM (inactive), the GI50 (DU-145) was 13 µM (inactive) and the GI50 (EKVX) was 13.8 µM (inactive). The GI50 (HCC 2998) was 10.6 µM (inactive), the GI50 (HCT-116) was 14.2 µM (inactive) and the GI50 (HOP-62) was 17.1 µM (inactive). The GI50 (HOP-92) was 15.7 µM (inactive), the GI50 (Hs-578T) was 15.3 µM (inactive) and the GI50 (IGROV-1) was 12.4 µM (inactive). For the same molecule, the GI50 (KM12) was 10.1 µM (inactive), the GI50 (LOX IMVI) was 16.7 µM (inactive) and the GI50 (M14) was 14.8 µM (inactive). For the same molecule, the GI50 (MDA-MB-231) was 17.5 µM (inactive), the GI50 (NCI-H226) was 18.5 µM (inactive) and the GI50 (NCI-H460) was 4.57 µM (inactive). For the same molecule, the GI50 (NCI-H522) was 16.7 µM (inactive), the GI50 (NCI/ADR-RES) was 13.9 µM (inactive) and the GI50 (OVCAR-3) was 15.8 µM (inactive). For the same molecule, the GI50 (OVCAR-4) was 15.3 µM (inactive), the GI50 (OVCAR-8) was 15.7 µM (inactive) and the GI50 (PC-3) was 13.2 µM (inactive). The GI50 (RXF 393) was 10.5 µM (inactive), the GI50 (SF-268) was 13.8 µM (inactive) and the GI50 (SF-539) was 17 µM (inactive). The GI50 (SK-MEL-28) was 30.5 µM (inactive), the GI50 (SK-MEL-2) was 15.8 µM (inactive) and the GI50 (SN12C) was 2.48 µM (inactive). For the same molecule, the GI50 (SNB-19) was 16.9 µM (inactive), the GI50 (SNB-75) was 14 µM (inactive) and the GI50 (SW-620) was 22.9 µM (inactive). The GI50 (T47D) was 15.5 µM (inactive), the GI50 (TK-10) was 17.4 µM (inactive) and the GI50 (U-251) was 11.5 µM (inactive). The GI50 (UACC-257) was 16.5 µM (inactive).
With `OC[C@H]1O[C@@H](Oc2cc(O)cc(/C=C/c3ccc(O)cc3)c2)[C@H](O)[C@@H](O)[C@@H]1O` [PICEID] the GI50 (786-0) was > 100 µM (inactive), the GI50 (A498) was > 100 µM (inactive) and the GI50 (A549) was > 100 µM (inactive). The GI50 (ACHN) was > 100 µM (inactive), the GI50 (BT-549) was > 100 µM (inactive) and the GI50 (CAKI-1) was > 100 µM (inactive). The GI50 (CCRF-CEM) was > 100 µM (inactive), the GI50 (DU-145) was > 100 µM (inactive) and the GI50 (EKVX) was > 100 µM (inactive). For the same molecule, the GI50 (HCT-116) was > 100 µM (inactive), the GI50 (HCT-15) was greater than 100 µM and the GI50 (HL-60) was > 100 µM (inactive). The GI50 (HOP-62) was > 100 µM (inactive), the GI50 (HOP-92) was > 100 µM (inactive) and the GI50 (HT-29) was > 100 µM (inactive). For the same molecule, the GI50 (Hs-578T) was > 100 µM (inactive), the GI50 (IGROV-1) was > 100 µM (inactive) and the GI50 (K562) was > 100 µM (inactive). For the same molecule, the GI50 (KM12) was > 100 µM (inactive), the GI50 (LOX IMVI) was > 100 µM (inactive) and the GI50 (MCF7) was > 100 µM (inactive). The GI50 (MDA-MB-231) was > 100 µM (inactive), the GI50 (MDA-MB-435) was > 100 µM (inactive) and the GI50 (MDA-N) was > 100 µM (inactive). The GI50 (MOLT-4) was > 100 µM (inactive), the GI50 (NCI-H226) was > 100 µM (inactive) and the GI50 (NCI-H460) was > 100 µM (inactive). The GI50 (NCI-H522) was > 100 µM (inactive), the GI50 (NCI/ADR-RES) was > 100 µM (inactive) and the GI50 (OVCAR-3) was > 100 µM (inactive). The GI50 (OVCAR-4) was > 100 µM (inactive), the GI50 (OVCAR-5) was > 100 µM (inactive) and the GI50 (OVCAR-8) was > 100 µM (inactive). For the same molecule, the GI50 (PC-3) was > 100 µM (inactive), the GI50 (RPMI-8226) was > 100 µM (inactive) and the GI50 (RXF 393) was > 100 µM (inactive). For the same molecule, the GI50 (SF-295) was > 100 µM (inactive), the GI50 (SF-539) was > 100 µM (inactive) and the GI50 (SK-MEL-28) was > 100 µM (inactive). The GI50 (SK-MEL-2) was > 100 µM (inactive), the GI50 (SK-MEL-5) was > 100 µM (inactive) and the GI50 (SK-OV-3) was > 100 µM (inactive). For the same molecule, the GI50 (SN12C) was > 100 µM (inactive), the GI50 (SNB-19) was > 100 µM (inactive) and the GI50 (SNB-75) was > 100 µM (inactive). For the same molecule, the GI50 (SR) was > 100 µM (inactive), the GI50 (SW-620) was > 100 µM (inactive) and the GI50 (TK-10) was > 100 µM (inactive). The GI50 (U-251) was > 100 µM (inactive), the GI50 (UACC-257) was > 100 µM (inactive) and the GI50 (UACC-62) was > 100 µM (inactive). For the same molecule, the GI50 (UO-31) was > 100 µM (inactive).
